This assay has as its system Chorioallantoic membrane. Briefly: Antiangiogenic activity in chicken chorioallantoic membrane assessed as area of neovascularization at 60 mg/ml administered on 7th embryonic day incubated for 4 days by microscopy (reference value: 100%). It counts as functional.

Active and inactive are the calls of the source. The rule behind the calls is not given here.

Regarding `CO[C@H]1O[C@H](CS(=O)(=O)c2ccccc2)[C@@H](O)[C@H](O)[C@@H]1O`, for the setting “Gallus gallus”, the result was inactive.

In the case of `CO[C@H]1O[C@H](COP(=O)(O)O)[C@@H](O)[C@H](O)[C@@H]1O`, the Activity worked out at 43%.

Turning to `CO[C@H]1O[C@H](CCP(=O)(O)O)[C@@H](O)[C@H](O)[C@@H]1O`, the Activity is given as 138%.

Turning to `CO[C@H]1O[C@H](Cc2nnn[nH]2)[C@@H](O)[C@H](O)[C@@H]1O`, the Activity came to 68%.

As for `CO[C@H]1O[C@H](CCC(=O)O)[C@@H](O)[C@H](O)[C@@H]1O`, the Activity is recorded as 70%.
